The source of these data is patent US9546201B2, “MUC-1 cytoplasmic domain peptides as inhibitors of cancer” (DANA-FARBER CANCER INSTITUTE, INC., priority 2008, dated 2017).

Where a SMILES comes first, the peptide text is derived from it. Where no end group is shown, it is not given here. [ ]: non-standard residue; d: D form.

One test deals with T1, MUC1-C in ZR-75-1 cells (Homo sapiens, UniProt P15941).
T1 construct: translated as a single polypeptide and cleaved into N- and C-terminal subunits in the endoplasmic reticulum; endogenous in cells; host or cells: ZR-75-1 and MCF-7 human breast cancer cells
T1 sequence (P15941 1098-1255 limits assumed): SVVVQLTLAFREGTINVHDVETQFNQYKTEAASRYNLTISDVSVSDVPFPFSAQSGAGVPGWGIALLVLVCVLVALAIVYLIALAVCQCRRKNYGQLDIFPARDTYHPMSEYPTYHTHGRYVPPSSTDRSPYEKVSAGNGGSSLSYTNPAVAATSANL
Kind of test: Immunoblot of whole cell and nuclear lysates, ZR-75-1. Type of test: cell-based. As to conditions: 5 μM peptide for 3 d; for decreases in nuclear MUC1-C levels: nuclear lysates; for cellular MUC1-C levels: whole cell lysates. As to the method:
FIGS. 2A-C. MUC1/CQC peptide blocks nuclear localization of MUC1-C. (FIG. 2A) ZR-75-1 cells were incubated with 5 μM FITC-labeled MUC1/CQC peptide for the indicated times and then analyzed by flow cytometry. The mean fluorescence index (MFI) is included in each of the panels. (FIGS. 2B-C) ZR-75-1 (FIG. 2B) and MCF-7 (FIG. 2C) cells were incubated in the presence of 5 μM MUC1/CQC or MUC1/AQA peptide for 3 d. Whole cell lysates (WCL) (left panels) and nuclear lysates (right panels) were immunoblotted with the indicated antibodies.
Whole cell and nuclear lysates were prepared as described (Leng et al., 2007). Soluble proteins were subjected to immunoprecipitation with anti-Flag (Sigma, St. Louis, Mo.). Immunoprecitates and soluble proteins were analyzed by immunoblotting with anti-His (Cell Signaling Technology, Danvers, Mass.), anti-GFP (Millipore, Danvers, Mass.), anti-Flag, anti-MUC1-C (Abl; NeoMarkers, Fremont, Calif.), anti-lamin B (EMD, La Jolla, Calif.) or anti-β-actin (Sigma). Reactivity was detected with horseradish peroxidase-conjugated second antibodies and chemiluminescence.
Human ZR-75-1 and MCF-7 breast cancer cells overexpress endogenous MUC1, and thus represent potential models for evaluating effects of the MUC1/CQC peptide (Ramasamy et al., 2007). To assess uptake, the ZR-75-1 cells were incubated with 5 μM FITC-MUC1/CQC peptide (FIG. 2A). […] Oligomerization of MUC1-C is necessary for its nuclear import (Leng et al., 2007). Treatment of ZR-75-1 cells with the MUC1/CQC or the MUC1/AQA peptide had no effect on cellular MUC1-C levels (FIG. 2B). […] These findings indicate that the MUC1/CQC peptide blocks MUC1-C oligomerization and thereby targeting of MUC1-C to the nucleus.
For orientation: In western blotting, separated proteins are transferred to a membrane and probed.

The target of test [1] is T2, complexes of GFP-MUC1-CD and Flag-MUC1-CD (Homo sapiens, UniProt P15941).
T2 construct: expressed in transfected cells; host or cells: 293 cells
T2 sequence (P15941 1184-1255 limits assumed): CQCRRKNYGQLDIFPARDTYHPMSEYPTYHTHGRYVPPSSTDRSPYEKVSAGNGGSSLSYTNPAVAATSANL
Kind of test: Coprecipitation of GFP-MUC1-CD and Flag-MUC1-CD in transfected 293 cells. The note with it: 5 μM peptide for 3 d. Type of test: cell-based. The method, then: (§1) FIGS. 1A-D. MUC1/CQC peptide blocks MUC1 oligomerization. (FIG. 1A) Schematic representation of the MUC1-C subunit and the 72-amino acid sequence of MUC1-CD (SEQ ID NO: 1) are shown. The N-terminal 15 amino acids (shaded sequence; SEQ ID NO: 3) MUC1/CQC (SEQ ID NO: 63) and mutated MUC1/AQA (SEQ ID NO: 60) peptides were synthesized with the poly-dArg transduction domain. (FIG. 1B) His-MUC1-CD (1.4 mg/ml) was immobilized on a sensor chip in a BIAcore. MUC1/CQC was injected over the chip at 10 μM. Raw binding data were analyzed by BIAevaluation software version 3.0 and fit to a 1:1 Languir binding model. (FIG. 1C) Purified His-MUC1-CD (1.5 mg/ml) was incubated with PBS, 200 μM MUC1/CQC or 200 μM MUC1/AQA for 1 h at room temperature. The proteins were separated in a non-reducing SDS-polyacrylamide gel and analyzed by immunoblotting with anti-MUC1-C. […]
Whole cell and nuclear lysates were prepared as described (Leng et al., 2007). […] Immunoprecitates and soluble proteins were analyzed by immunoblotting with anti-His (Cell Signaling Technology, Danvers, Mass.), anti-GFP (Millipore, Danvers, Mass.), anti-Flag, anti-MUC1-C (Abl; NeoMarkers, Fremont, Calif.), anti-lamin B (EMD, La Jolla, Calif.) or anti-β-actin (Sigma). Reactivity was detected with horseradish peroxidase-conjugated second antibodies and chemiluminescence. […]

The next test has as its target T3, His-MUC1-CD oligomers (Homo sapiens, UniProt P15941).
T3 sequence (P15941 1184-1255): T2 sequence (P15941 1184-1255 limits assumed)
Nature of the test: Oligomer formation of purified His-MUC1-CD (non-reducing SDS-polyacrylamide gel, anti-MUC1-C immunoblot). It counts as biochemical. As to conditions: 200 μM peptide, 1 h at room temperature. The method, then:
as §1, with “anti-MUC1-C. (FIG. 1D) 293 cells were transiently transfected to express an empty vector or GFP-MUC1-CD and Flag-MUC1-CD. At 48 h after transfection, the cells were treated with 5 μM MUC1/CQC or MUC1/AQA for 3 d. The cells were then harvested for immunoblotting with anti-MUC1-C (left panel).” for “anti-MUC1-C.”
The MUC1 cytoplasmic domain (MUC1-CD) contains a CQC motif that is necessary for the formation of oligomers and nuclear localization (Leng et al., 2007). […] Purified His-tagged MUC1-CD forms oligomers as detected by electrophoresis in polyacrylamide gels (FIG. 1C). […]

For the compound `CC[C@H](C)[C@H](NC(=O)[C@H](CC(=O)O)NC(=O)[C@H](CC(C)C)NC(=O)[C@H](CCC(N)=O)NC(=O)CNC(=O)[C@H](Cc1ccc(O)cc1)NC(=O)[C@H](CC(N)=O)NC(=O)[C@H](CCCCN)NC(=O)[C@H](CCCNC(=N)N)NC(=O)[C@H](CCCNC(=N)N)NC(=O)[C@H](CS)NC(=O)[C@H](CCC(N)=O)NC(=O)[C@H](CS)NC(=O)[C@@H](CCCNC(=N)N)NC(=O)[C@@H](CCCNC(=N)N)NC(=O)[C@@H](CCCNC(=N)N)NC(=O)[C@@H](CCCNC(=N)N)NC(=O)[C@@H](CCCNC(=N)N)NC(=O)[C@@H](CCCNC(=N)N)NC(=O)[C@@H](CCCNC(=N)N)NC(=O)[C@@H](CCCNC(=N)N)NC(=O)[C@H](N)CCCNC(=N)N)C(=O)N[C@@H](Cc1ccccc1)C(=O)N1CCC[C@H]1C(=O)O` [MUC1/CQC] (H-[dR][dR][dR][dR][dR][dR][dR][dR][dR]CQCRRKNYGQLDIFP-OH; N-terminus and C-terminus assumed), at MUC1-C in ZR-75-1 cells, the “decreases in nuclear MUC1-C levels” value is on record as “decreases in nuclear MUC1-C levels” and the “cellular MUC1-C levels” value was “no effect”. Besides, the “interaction between Flag-MUC1-CD and GFP-MUC1-CD” value in test [1] is given as “disruption of the interaction”. At His-MUC1-CD oligomers, the “oligomer formation of His-MUC1-CD” value was “substantially decreased oligomer formation”.
Take “MUC1/AQA: control peptide in which the CQC motif was altered to AQA, with poly-dArg transduction domain; SEQ ID NO: 60 ([dR][dR][dR][dR][dR][dR][dR][dR][dR]AQARRKNYGQLDIFP) [reference compound]”: in the test with MUC1-C in ZR-75-1 cells, the “decreases in nuclear MUC1-C levels” value is on record as “not” and the “cellular MUC1-C levels” value is “no effect”. In test [1], the “interaction between Flag-MUC1-CD and GFP-MUC1-CD” value is listed as “no apparent effect”. Further, the “oligomer formation of His-MUC1-CD” value with His-MUC1-CD oligomers was “little if any effect”.
